# Assay results: patent US20250387352A1 (SpringWorks Therapeutics, Inc., priority 2024, published 2025)
# Assays:
# [1] = test system: NF1-associated plexiform neurofibromas (PNs); assay: Phase 2b trial of mirdametinib in adult and pediatric patients with NF1-associated inoperable plexiform neurofibromas: efficacy by BICR volumetric MRI (REiNS); type: in vivo, human
# Experimental: Study treatment was administered orally at a twice daily (BID) dose specified in the table below. Dosing was on a 28-day Cycle (4-week course) with a 3 week on/1 week off schedule. The treatment period will last for up to 24 Cycles followed by a 30-day Safety Follow-Up period.
# A partial response was defined as PN decrease ≥20% compared to baseline using centrally read MRI volumetric analysis.
# The major efficacy outcome measure was confirmed objective response rate (ORR), defined as the percentage of patients with complete response (disappearance of the target PN) or confirmed partial response (≥20% reduction in PN volume confirmed at a subsequent tumor assessment within 2-6 months during the 24-cycle treatment phase). Responses were assessed by blinded independent central review (BICR) using volumetric magnetic resonance imaging (MRI) analysis per Response Evaluation in Neurofibromatosis and Schwannomatosis (REINS) criteria. A secondary efficacy objective was to determine the duration of response for patients who achieved a confirmed objective response.
# [2] = Clinical pharmacokinetic parameters of mirdametinib (Table A); details: human, in vivo
# [3] = Metabolism and excretion of mirdametinib (radioactivity recovery); type: in vivo
compound,measurement,setting,value
"O=C(NOC[C@H](O)CO)c1ccc(F)c(F)c1Nc1ccc(I)cc1F (single isomer, unassigned) [mirdametinib]",median time to onset of response,[1]; adult cohort,7.8 months
same,ORR also considering confirmed objective response after cycle 24,[1]; adults,45%
same,median time to onset of response,[1]; pediatric cohort,7.9 months
same,ORR also considering confirmed objective response after cycle 24,[1]; pediatric patients,54%
same,Time to steady-state,[2],Approximately 6 days
same,Excretion: Radioactivity,[3]; In feces,In feces: 27%
same,Excretion: Radioactivity,[3]; In urine,In urine: 68%
same,Excretion: Unchanged mirdametinib,[3]; In urine,In urine: 0.7%
same,Excretion: Unchanged mirdametinib,[3]; In urine and feces,In urine and feces: 9%
